# Results published in US6737383B1, “Herbicidal oxadiazolidines” (priority 1999, dated 2004).
# Key:
# bamyardgrass = experiment: Test B flood test barnyardgrass; assay type: in vivo, Echinochloa crus-galli
# Method in brief: (§1)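 Each value is a visual injury score relative to controls, with 10 meaning complete control and 0 no effect. Evaluation took place twelve to sixteen days after the 2-leaf-stage plants were treated and kept in the greenhouse.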
# giant foxtail = experiment: Test B pre/postemergence giant foxtail; assay type: in vivo, Setaria faberii
# Method in brief: (§2)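 Herbicidal effect was estimated by eye on a ten-point control scale after plants spent twelve to sixteen days in a greenhouse following soil or foliar treatment. Foliar sprays targeted plants at one to four leaves; all doses were formulated in a non-phytotoxic solvent with surfactant.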
# rice = experiment: Test B flood test rice; assay type: in vivo, Oryza sativa
# Method in brief: as §1
# rape = experiment: Test B pre/postemergence rape; assay type: in vivo, Brassica napus
# Method in brief: as §2
# smallflower flatsedge = experiment: Test B flood test smallflower flatsedge; assay type: in vivo, Cyperus difformis
# Method in brief: as §1
# wheat = experiment: Test B pre/postemergence wheat; assay type: in vivo, Triticum aestivum
# Method in brief: as §2
# duck salad = experiment: Test B flood test duck salad; assay type: in vivo, Heteranthera limosa
# Method in brief: as §1
# morningglory = experiment: Test B pre/postemergence morningglory; assay type: in vivo, Ipomoea hederacea
# Method in brief: as §2
# sugar beet = experiment: Test B pre/postemergence sugar beet; assay type: in vivo, Beta vulgaris
# Method in brief: as §2
# pigweed = experiment: Test B pre/postemergence pigweed; assay type: in vivo, Amaranthus retroflexus
# Method in brief: as §2
# corn = experiment: Test B pre/postemergence corn; assay type: in vivo, Zea mays
# Method in brief: as §2
# cocklebur = experiment: Test B pre/postemergence cocklebur; assay type: in vivo, Xanthium strumarium
# Method in brief: as §2
# crabgrass = experiment: Test B pre/postemergence crabgrass; assay type: in vivo, Digitaria sanguinalis
# Method in brief: as §2
# purple nutsedge = experiment: Test B pre/postemergence purple nutsedge; assay type: in vivo, Cyperus rotundus
# Method in brief: as §2
# wild oat = experiment: Test B pre/postemergence wild oat; assay type: in vivo, Avena fatua
# Method in brief: as §2
# surinam grass = experiment: Test B pre/postemergence surinam grass; assay type: in vivo, Brachiaria decumbens
# Method in brief: as §2
# [1] = Postemergence, Rate 62 g/ha, scale 0 to 10, 0 is no effect, 10 is complete control
# [2] = Rate 125 g/ha, Postemergence section (flood test species), scale 0 to 10, 0 no effect, 10 complete control
# [3] = Rate 500 g/ha, listed under Postemergence (flood test species), scale 0 to 10, 0 no effect, 10 complete control
# [4] = flood test, listed under Postemergence, Rate 250 g/ha, scale 0 to 10, 0 no effect, 10 complete control
# [5] = Postemergence, Rate 250 g/ha, scale 0 to 10, 0 no effect, 10 complete control
# [6] = Preemergence, Rate 62 g/ha, scale 0 to 10 (0 no effect, 10 complete control)
# [7] = Preemergence, Rate 125 g/ha, scale 0 to 10 (0 no effect, 10 complete control)
# [8] = Preemergence, Rate 250 g/ha, scale of 0 to 10 where 0 is no effect and 10 is complete control
# [9] = Preemergence, Rate 500 g/ha, scale 0 (no effect) to 10 (complete control)
# [10] = Rate 125 g/ha, Postemergence, scale 0 to 10, 0 no effect, 10 complete control
# [11] = Rate 500 g/ha, Postemergence, scale 0 to 10, 0 no effect, 10 complete control
smiles,measurement,setting,value
Cc1cc(C)c(-n2c(=O)on(C(=O)N(c3ccc(Cl)cc3)C(C)C)c2=O)c(C)c1 [Compound 61],Barnyardgrass plant response rating,bamyardgrass; [1],0
same,Barnyardgrass plant response rating,bamyardgrass; [2],0
same,Barnyardgrass plant response rating,bamyardgrass; [3],0
same,Barnyardgrass plant response rating,bamyardgrass; [4],0
same,Giant foxtail plant response rating,giant foxtail; [1],0
same,Giant foxtail plant response rating,giant foxtail; [5],0
same,Giant foxtail plant response rating,giant foxtail; [6],3
same,"Plant response rating, Giant foxtail",giant foxtail; [7],7
same,"Plant response rating, Giant foxtail",giant foxtail; [8],9
same,Giant foxtail plant response rating,giant foxtail; [9],10
same,Giant foxtail plant response rating,giant foxtail; [10],0
same,Giant foxtail plant response rating,giant foxtail; [11],0
same,Rice plant response rating,rice; [1],0
same,Rice plant response rating,rice; [2],0
same,Rice plant response rating,rice; [3],0
same,Rice plant response rating,rice; [4],0
same,Rape plant response rating,rape; [1],0
same,Rape plant response rating,rape; [5],0
same,Rape plant response rating,rape; [6],0
same,"Plant response rating, Rape",rape; [7],0
same,"Plant response rating, Rape",rape; [8],0
same,Rape plant response rating,rape; [9],0
same,Rape plant response rating,rape; [10],0
same,Rape plant response rating,rape; [11],3
same,S. Flatsedge plant response rating,smallflower flatsedge; [1],0
same,S. Flatsedge plant response rating,smallflower flatsedge; [2],0
same,S. Flatsedge plant response rating,smallflower flatsedge; [3],0
same,S. Flatsedge plant response rating,smallflower flatsedge; [4],0
same,Wheat plant response rating,wheat; [1],0
same,Wheat plant response rating,wheat; [5],0
same,Wheat plant response rating,wheat; [6],0
same,"Plant response rating, Wheat",wheat; [7],0
same,"Plant response rating, Wheat",wheat; [8],0
same,Wheat plant response rating,wheat; [9],0
same,Wheat plant response rating,wheat; [10],0
same,Wheat plant response rating,wheat; [11],0
same,Ducksalad plant response rating,duck salad; [1],0
same,Ducksalad plant response rating,duck salad; [2],0
same,Ducksalad plant response rating,duck salad; [3],0
same,Ducksalad plant response rating,duck salad; [4],0
same,Morningglory plant response rating,morningglory; [1],2
same,Morningglory plant response rating,morningglory; [5],4
same,Morningglory plant response rating,morningglory; [6],0
same,"Plant response rating, Morningglory",morningglory; [7],0
same,"Plant response rating, Morningglory",morningglory; [8],0
same,Morningglory plant response rating,morningglory; [9],0
same,Morningglory plant response rating,morningglory; [10],2
same,Morningglory plant response rating,morningglory; [11],8
same,Sugarbeets plant response rating,sugar beet; [1],0
same,Sugarbeets plant response rating,sugar beet; [5],2
same,Sugarbeets plant response rating,sugar beet; [6],0
same,"Plant response rating, Sugarbeets",sugar beet; [7],0
same,"Plant response rating, Sugarbeets",sugar beet; [8],5
same,Sugarbeets plant response rating,sugar beet; [9],6
same,Sugarbeets plant response rating,sugar beet; [10],2
same,Sugarbeets plant response rating,sugar beet; [11],6
same,Redroot pigweed plant response rating,pigweed; [1],1
same,Redroot pigweed plant response rating,pigweed; [5],3
same,Redroot pigweed plant response rating,pigweed; [6],0
same,"Plant response rating, Redroot pigweed",pigweed; [7],0
same,"Plant response rating, Redroot pigweed",pigweed; [8],1
same,Redroot pigweed plant response rating,pigweed; [9],3
same,Redroot pigweed plant response rating,pigweed; [10],2
same,Redroot pigweed plant response rating,pigweed; [11],4
same,Corn plant response rating,corn; [1],0
same,Corn plant response rating,corn; [5],0
same,Corn plant response rating,corn; [6],0
same,"Plant response rating, Corn",corn; [7],0
same,"Plant response rating, Corn",corn; [8],0
same,Corn plant response rating,corn; [9],0
same,Corn plant response rating,corn; [10],0
same,Corn plant response rating,corn; [11],0
same,Cocklebur plant response rating,cocklebur; [1],0
same,Cocklebur plant response rating,cocklebur; [5],0
same,Cocklebur plant response rating,cocklebur; [6],0
same,"Plant response rating, Cocklebur",cocklebur; [7],0
same,"Plant response rating, Cocklebur",cocklebur; [8],0
same,Cocklebur plant response rating,cocklebur; [9],0
same,Cocklebur plant response rating,cocklebur; [10],0
same,Cocklebur plant response rating,cocklebur; [11],1
same,Crabgrass plant response rating,crabgrass; [1],0
same,Crabgrass plant response rating,crabgrass; [5],0
same,Crabgrass plant response rating,crabgrass; [6],0
same,"Plant response rating, Crabgrass",crabgrass; [7],4
same,"Plant response rating, Crabgrass",crabgrass; [8],7
same,Crabgrass plant response rating,crabgrass; [9],8
same,Crabgrass plant response rating,crabgrass; [10],0
same,Crabgrass plant response rating,crabgrass; [11],0
same,Nutsedge plant response rating,purple nutsedge; [1],0
same,Nutsedge plant response rating,purple nutsedge; [5],0
same,Nutsedge plant response rating,purple nutsedge; [6],0
same,"Plant response rating, Nutsedge",purple nutsedge; [7],0
same,"Plant response rating, Nutsedge",purple nutsedge; [8],0
same,Nutsedge plant response rating,purple nutsedge; [9],0
same,Nutsedge plant response rating,purple nutsedge; [10],0
same,Nutsedge plant response rating,purple nutsedge; [11],0
same,Wild oats plant response rating,wild oat; [1],0
same,Wild oats plant response rating,wild oat; [5],0
same,Wild oats plant response rating,wild oat; [6],0
same,"Plant response rating, Wild oats",wild oat; [7],0
same,"Plant response rating, Wild oats",wild oat; [8],0
same,Wild oats plant response rating,wild oat; [9],3
same,Wild oats plant response rating,wild oat; [10],0
same,Wild oats plant response rating,wild oat; [11],0
same,B. signalgrass plant response rating,surinam grass; [1],0
same,B. signalgrass plant response rating,surinam grass; [5],0
same,B. signalgrass plant response rating,surinam grass; [6],0
same,"Plant response rating, B. signalgrass",surinam grass; [7],1
same,"Plant response rating, B. signalgrass",surinam grass; [8],5
same,B. signalgrass plant response rating,surinam grass; [9],5
same,B. signalgrass plant response rating,surinam grass; [10],0
same,B. signalgrass plant response rating,"surinam grass; Rate 500 g/ha, Postemergence, scale of 0 to 10 where 0 is no effect and 10 is complete control",1
